This test concerns the target T1, human Oxytocin (OTR) receptor (Homo sapiens, UniProt P30559).
T1 construct: expressed in transfected cells
T1 sequence (P30559 1-389): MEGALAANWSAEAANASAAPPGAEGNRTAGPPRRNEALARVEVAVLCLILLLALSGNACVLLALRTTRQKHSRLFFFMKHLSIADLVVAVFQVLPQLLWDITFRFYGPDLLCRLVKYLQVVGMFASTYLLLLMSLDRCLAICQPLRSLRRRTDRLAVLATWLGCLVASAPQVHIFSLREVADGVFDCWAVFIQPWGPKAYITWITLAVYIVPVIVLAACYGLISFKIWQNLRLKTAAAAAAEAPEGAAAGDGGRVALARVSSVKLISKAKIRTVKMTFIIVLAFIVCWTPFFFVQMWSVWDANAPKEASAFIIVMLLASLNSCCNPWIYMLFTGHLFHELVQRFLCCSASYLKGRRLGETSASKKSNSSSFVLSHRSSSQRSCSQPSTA
Kind of test: Calcium flux assay (FLIPR), agonist mode, CHO cells expressing human OTR. To be noted: calcium flux in CHO cells expressing human OTR, read-out: hEC50. In kind it is cell-based. The source says: Chinese Hamster Ovary (CHO) cells were transfected with expression plasmids encoding either the human V1a, the human Oxytocin (OTR) or the humanV2 receptor, the latter in combination with the chimeric Gqs5 G protein to redirect the signal to Calcium flux. Stable cells were cloned by limiting dilution to yield monoclonal cell lines expressing either human V1a, human V2+Gqs5 or human OTR receptors and selected based on functional responses detected on a fluorometric imaging plate reader (FLIPR) detecting Calcium flux in the cell after receptor activation. The stable cell lines were grown in F-12 K Nutrient Mixture (Kaighns Modification), containing 10% foetal bovine serum (FBS), 1% penicillin-streptomycin, 1% L-[…], 200 ug/ml Geneticin at 37° C. in a 10% CO2 incubator at 95% humidity.
Calcium Flux Assays Using Fluorescent Imaging (Fluorometric Imaging Plate Reader, FLIPR)
On the afternoon before the assay, cells were plated at a density of 50,000 cells/well into black 96 well plates with clear bottoms to allow cell inspection and fluorescence measurements from the bottom of each well. The density of cells was sufficient to yield a confluent monolayer the next day. Hanks balanced salt solution, without phenol red, containing 20 mM HEPES (pH 7.3) and 2.5 mM probenecid (assay buffer) was prepared fresh for each experiment. Compound dilutions were made using a Beckman Biomek 2000 laboratory automation workstation, in assay buffer containing 1% DMSO. The dye-loading buffer consisted of a final concentration of 2 μM Fluo-4-AM (dissolved in DMSO and pluronic acid) in assay buffer. The existing culture media was removed from the wells and 100 μl of the dye-loading buffer was added to each well and incubated for approximately 60 min at 37° C. in a 5% CO2 incubator at 95% humidity. Once dye-loaded, the cells were washed thoroughly on an Embla cell washer with the assay buffer to remove any unincorporated dye. Exactly 100 μl assay buffer was left in each well.
Each 96 well plate containing dye-loaded cells was placed into the FLIPR machine and the laser intensity set to a suitable level to detect low basal fluorescence. To test compounds as agonists, 25 μl diluted compound was added to the plate 10 seconds into the fluorescent measurements and fluorescent response was recorded for 5 minutes. The fluorescence data was normalized to the endogenous full agonist dose-response set at 100% for the maximum response and 0% for the minimum. Each agonist concentration-response curve was constructed using a four parameter logistic equation with Microsoft Excel XLFit as follows: Y=Minimum+((Maximum−Minimum)/(1+10^(LogEC50-X)nH)), where y is the % normalized fluorescence, minimum is the minimum y, maximum is the maximum y, log EC50 is the log10 concentration which produces 50% of the maximum induced fluorescence, x is the log10 of the concentration of the agonist compound and H is the slope of the curve (the Hill Coefficient). The maximum value gives the efficacy of the agonist test compound in percentage. The concentration of agonist that produced a half-maximal response is represented by the EC50 value, the logarithm of which yielded the pEC50 value.
For `O=S(=O)(Nc1ccnn1-c1ccccn1)c1ccc(S(=O)(=O)C(F)(F)F)cc1` [Example 23, N-(2-Pyridin-2-yl-2H-pyrazol-3-yl)-4-trifluoromethanesulfonyl-benzenesulfonamide], the EC50 turned out to be 753 nM.
Take `CCc1ccc(S(=O)(=O)Nc2ccnn2-c2nc(C)cs2)cc1` [Example 11, 4-Ethyl-N-[2-(4-methyl-thiazol-2-yl)-2H-pyrazol-3-yl]-benzenesulfonamide]: the EC50 worked out at 113 nM.
Then `O=S(=O)(Nc1ccnn1-c1ccnc(C(F)(F)F)n1)c1ccc(C(F)(F)F)cc1` [Example 21, 4-Trifluoromethyl-N-[2-(2-trifluoromethyl-pyrimidin-4-yl)-2H-pyrazol-3-yl]-benzenesulfonamide], with 1570 nM; and `CCc1ccc(S(=O)(=O)Nc2ccnn2-c2cc(C)ccn2)cc1` [Example 18, 4-Ethyl-N-[2-(4-methyl-pyridin-2-yl)-2H-pyrazol-3-yl]-benzenesulfonamide], with 20 nM.
Regarding `O=S(=O)(Nc1ccnn1-c1ccccn1)c1ccc(C(F)(F)F)cc1F` [Example 22, 2-Fluoro-N-(2-pyridin-2-yl-2H-pyrazol-3-yl)-4-trifluoromethyl-benzenesulfonamide], the EC50 is 333 nM.
The figure for `N#Cc1ccc(S(=O)(=O)Nc2ccnn2-c2ccccn2)cc1` [Example 8, 4-Cyano-N-(2-pyridin-2-yl-2H-pyrazol-3-yl)-benzenesulfonamide] is 81 nM.
The figure for `O=S(=O)(Nc1ccnn1-c1ccccn1)c1ccc(C(F)(F)F)cc1Cl` [Example 5, 2-Chloro-N-(2-pyridin-2-yl-2H-pyrazol-3-yl)-4-trifluoromethyl-benzenesulfonamide] is 91 nM; for `O=S(=O)(Nc1ccnn1-c1ccccn1)c1ccc(Cl)cc1Cl` [Example 13, 2,4-Dichloro-N-(2-pyridin-2-yl-2H-pyrazol-3-yl)-benzenesulfonamide] it is 17 nM; for `CCc1ccc(S(=O)(=O)Nc2ccnn2-c2ccccn2)cc1` [Example 3, 4-Ethyl-N-(2-pyridin-2-yl-2H-pyrazol-3-yl)-benzenesulfonamide] it is 16 nM.
In the case of `Cc1ccnc(-n2nccc2NS(=O)(=O)c2ccc(C#N)cc2)c1` [Example 19, 4-Cyano-N-[2-(4-methyl-pyridin-2-yl)-2H-pyrazol-3-yl]-benzenesulfonamide], the EC50 stood at 63 nM.
Take `O=S(=O)(Nc1ccnn1-c1ccc(F)cc1)c1ccc(Cl)cc1` [Example 7, 4-Chloro-N-[2-(4-fluoro-phenyl)-2H-pyrazol-3-yl]-benzenesulfonamide]: the EC50 stood at 2460 nM.
The figure for `O=S(=O)(Nc1ccnn1-c1ccccn1)c1ccc(SC(F)(F)F)cc1` [Example 20, N-(2-Pyridin-2-yl-2H-pyrazol-3-yl)-4-trifluoromethylsulfanyl-benzenesulfonamide] is 47 nM; for `O=S(=O)(Nc1ccnn1-c1ccccn1)c1ccc(Cl)cc1` [Example 1, 4-Chloro-N-(2-pyridin-2-yl-2H-pyrazol-3-yl)-benzenesulfonamide] it is 19 nM; for `O=S(=O)(Nc1ccnn1-c1ccccn1)c1ccc(C(F)(F)F)cc1` [Example 2, N-(2-Pyridin-2-yl-2H-pyrazol-3-yl)-4-trifluoromethyl-benzenesulfonamide] it is 8 nM.
The figure for `Cc1csc(-n2nccc2NS(=O)(=O)c2ccc(Cl)cc2)n1` [Example 10, 4-Chloro-N-[2-(4-methyl-thiazol-2-yl)-2H-pyrazol-3-yl]-benzenesulfonamide] is 163 nM; for `O=S(=O)(Nc1ccnn1-c1ccccn1)c1ccc(C(F)(F)F)c(F)c1` [Example 24, 3-Fluoro-N-(2-pyridin-2-yl-2H-pyrazol-3-yl)-4-trifluoromethyl-benzenesulfonamide] it is 799 nM.
Regarding `Cc1csc(-n2nccc2NS(=O)(=O)c2ccc(Cl)cc2F)n1` [Example 26, 4-Chloro-2-fluoro-N-[2-(4-methyl-thiazol-2-yl)-2H-pyrazol-3-yl]-benzenesulfonamide], the EC50 was 150 nM.
As to `Cc1ccnc(-n2nccc2NS(=O)(=O)c2ccc(Cl)cc2)c1` [Example 17, 4-Chloro-N-[2-(4-methyl-pyridin-2-yl)-2H-pyrazol-3-yl]-benzenesulfonamide], the EC50 worked out at 16 nM.
Then `CCc1ccc(S(=O)(=O)Nc2ccnn2-c2nc(C3CC3)ns2)cc1` [Example 25, N-[2-(3-Cyclopropyl-[1,2,4]thiadiazol-5-yl)-2H-pyrazol-3-yl]-4-ethyl-benzenesulfonamide], with 1570 nM; and `O=S(=O)(Nc1ccnn1-c1ncccn1)c1ccc(C(F)(F)F)cc1` [Example 12, N-(2-Pyrimidin-2-yl-2H-pyrazol-3-yl)-4-trifluoromethyl-benzenesulfonamide], with 1800 nM.
As to `Cc1ccnc(-n2nccc2NS(=O)(=O)c2ccc(C(F)(F)F)cc2)c1` [Example 16, N-[2-(4-Methyl-pyridin-2-yl)-2H-pyrazol-3-yl]-4-trifluoromethyl-benzenesulfonamide], the EC50 was 17 nM.
The figure for `CCCc1ccc(S(=O)(=O)Nc2ccnn2-c2ccccn2)cc1` [Example 4, 4-Propyl-N-(2-pyridin-2-yl-2H-pyrazol-3-yl)-benzenesulfonamide] is 34 nM; for `Cc1csc(-n2nccc2NS(=O)(=O)c2ccc(C(F)(F)F)cc2)n1` [Example 9, N-[2-(4-Methyl-thiazol-2-yl)-2H-pyrazol-3-yl]-4-trifluoromethyl-benzenesulfonamide] it is 520 nM; for `CC(F)c1ccc(S(=O)(=O)Nc2ccnn2-c2ccccn2)cc1` (stereo not shown) [Example 15, 4-(1-Fluoro-ethyl)-N-(2-pyridin-2-yl-2H-pyrazol-3-yl)-benzenesulfonamide] it is 84 nM.
Then `O=S(=O)(Nc1ccnn1-c1ccccn1)c1ccc(OC(F)F)cc1` [Example 6, 4-Difluoromethoxy-N-(2-pyridin-2-yl-2H-pyrazol-3-yl)-benzenesulfonamide], with 107 nM.

Values taken from patent US9751870B2, “Oxytocin receptor agonists for the treatment of CNS diseases” (Hoffmann-La Roche Inc., priority 2013, dated 2017).
